Test results published in the NIST ThermoML archive (doi:10.1016/j.jct.2015.01.001).

Experiment: mn = molality of the nth substance listed, in mol/kg
Settings: Liquid; for viscosity: Falling or rolling sphere viscometry; for mass density: Vibrating tube method

S [hydrogen sulfide] + O=S1(=O)CCCC1
Settings	mass density [kg/m3]	viscosity [mPa·s]
303.15 K, 86.7 kPa, m1 = 0.389	1257	9.33
303.15 K, 137.1 kPa, m1 = 0.623	1255	8.58
303.15 K, 193.6 kPa, m1 = 0.915	1253	7.76
303.15 K, 230.1 kPa, m1 = 1.128	1251	6.88
303.15 K, 304.1 kPa, m1 = 1.435	1248	6.31
303.15 K, 364.8 kPa, m1 = 1.764	1246	5.55
303.15 K, 401.1 kPa, m1 = 2.032	1244	5.09
303.15 K, 503.2 kPa, m1 = 2.605	1242	4.44
303.15 K, 616.7 kPa, m1 = 3.291	1238	3.7
303.15 K, 738.4 kPa, m1 = 4.17	1237	2.95
303.15 K, 889.7 kPa, m1 = 5.327	1233	2.08
303.15 K, 1040.5 kPa, m1 = 6.929	1230	1.47
313.15 K, 160.8 kPa, m1 = 0.626	1246	6.7
313.15 K, 227 kPa, m1 = 0.884	1242	6.03
313.15 K, 273.9 kPa, m1 = 1.021	1242	5.5
313.15 K, 362.7 kPa, m1 = 1.408	1238	5.07
313.15 K, 419.7 kPa, m1 = 1.723	1236	4.54
313.15 K, 481.3 kPa, m1 = 2.009	1234	4.02
313.15 K, 586.5 kPa, m1 = 2.375	1231	3.74
313.15 K, 718.4 kPa, m1 = 3.078	1228	3.07
313.15 K, 859.9 kPa, m1 = 3.931	1225	2.44
313.15 K, 1035.5 kPa, m1 = 5.164	1223	1.8
323.15 K, 76.1 kPa, m1 = 0.222	1243	6.09
323.15 K, 118.7 kPa, m1 = 0.378	1242	5.55
323.15 K, 190.1 kPa, m1 = 0.579	1239	5.16
323.15 K, 267.2 kPa, m1 = 0.823	1236	4.49
323.15 K, 317.2 kPa, m1 = 1.009	1234	4.35
323.15 K, 430.1 kPa, m1 = 1.389	1229	3.74
323.15 K, 490.4 kPa, m1 = 1.704	1226	3.41
323.15 K, 565.2 kPa, m1 = 1.985	1223	3.09
323.15 K, 688.7 kPa, m1 = 2.348	1220	2.86
323.15 K, 843.7 kPa, m1 = 3.097	1216	2.35
323.15 K, 1009.9 kPa, m1 = 3.97	1215	1.89
333.15 K, 88.3 kPa, m1 = 0.218	1233	4.78
333.15 K, 139.2 kPa, m1 = 0.372	1231	4.65
333.15 K, 219.9 kPa, m1 = 0.571	1228	4.29
333.15 K, 314.1 kPa, m1 = 0.811	1225	3.86
333.15 K, 370.5 kPa, m1 = 0.995	1223	3.58
333.15 K, 505.9 kPa, m1 = 1.368	1219	3.17
333.15 K, 576.7 kPa, m1 = 1.681	1215	2.8
333.15 K, 664 kPa, m1 = 1.959	1212	2.55
333.15 K, 800 kPa, m1 = 2.462	1208	2.29
343.15 K, 96 kPa, m1 = 0.205	1223	3.95
343.15 K, 159.7 kPa, m1 = 0.347	1220	3.74
343.15 K, 253.3 kPa, m1 = 0.563	1218	3.5
343.15 K, 368.1 kPa, m1 = 0.797	1215	3.13
343.15 K, 428.2 kPa, m1 = 0.981	1214	2.99
343.15 K, 590.6 kPa, m1 = 1.347	1211	2.65
343.15 K, 678.9 kPa, m1 = 1.654	1204	2.34
343.15 K, 782.1 kPa, m1 = 1.927	1202	2.18
343.15 K, 914 kPa, m1 = 2.221	1200	2.01
343.15 K, 1119.8 kPa, m1 = 2.876	1196	1.65
353.15 K, 116.1 kPa, m1 = 0.202	1216	3.24
353.15 K, 179.9 kPa, m1 = 0.319	1214	3.11
353.15 K, 288.8 kPa, m1 = 0.546	1210	2.69
353.15 K, 427.9 kPa, m1 = 0.802	1209	2.53
353.15 K, 494.2 kPa, m1 = 0.965	1206	2.46
353.15 K, 683.1 kPa, m1 = 1.324	1199	2.2
353.15 K, 795.9 kPa, m1 = 1.624	1195	1.98
353.15 K, 911.1 kPa, m1 = 1.894	1193	1.81
363.15 K, 131.7 kPa, m1 = 0.195	1208	2.71
363.15 K, 201.9 kPa, m1 = 0.304	1206	2.61
363.15 K, 327.1 kPa, m1 = 0.504	1202	2.46
363.15 K, 494.7 kPa, m1 = 0.767	1199	2.21
363.15 K, 565.7 kPa, m1 = 0.912	1196	2.05
363.15 K, 784.2 kPa, m1 = 1.3	1190	1.74
363.15 K, 928.7 kPa, m1 = 1.591	1185	1.5
363.15 K, 1052.3 kPa, m1 = 1.86	1184	1.37

O=S1(=O)CCCC1 [sulfolane] + O=C=O
Settings	mass density [kg/m3]	viscosity [mPa·s]
303.15 K, 118.4 kPa, m2 = 0.103	1260	9.99
303.15 K, 191.2 kPa, m2 = 0.174	1259	9.8
303.15 K, 316.5 kPa, m2 = 0.284	1258	9.36
303.15 K, 495.3 kPa, m2 = 0.438	1256	8.97
303.15 K, 648.5 kPa, m2 = 0.598	1255	8.34
303.15 K, 777.7 kPa, m2 = 0.709	1254	7.85
303.15 K, 1063.8 kPa, m2 = 1.001	1253	7
303.15 K, 1253.8 kPa, m2 = 1.205	1252	6.48
303.15 K, 1447.1 kPa, m2 = 1.423	1252	5.96
313.15 K, 121.8 kPa, m2 = 0.0954	1252	7.98
313.15 K, 200.8 kPa, m2 = 0.1579	1250	7.73
313.15 K, 324.9 kPa, m2 = 0.2571	1249	7.61
313.15 K, 526 kPa, m2 = 0.4296	1247	7.13
313.15 K, 732.9 kPa, m2 = 0.5763	1246	6.88
313.15 K, 855.1 kPa, m2 = 0.6803	1245	6.36
313.15 K, 1169.6 kPa, m2 = 0.9594	1243	5.81
313.15 K, 1383.5 kPa, m2 = 1.159	1243	5.28
313.15 K, 1644.1 kPa, m2 = 1.385	1242	4.99
323.15 K, 141.1 kPa, m2 = 0.093	1242	6.21
323.15 K, 238.4 kPa, m2 = 0.163	1241	6.1
323.15 K, 392.8 kPa, m2 = 0.266	1239	5.97
323.15 K, 632 kPa, m2 = 0.417	1237	5.69
323.15 K, 817.7 kPa, m2 = 0.557	1235	5.46
323.15 K, 993.9 kPa, m2 = 0.692	1234	5.16
323.15 K, 1413.4 kPa, m2 = 1.019	1232	4.68
323.15 K, 1706.6 kPa, m2 = 1.217	1231	4.28
323.15 K, 2006.9 kPa, m2 = 1.472	1231	3.98
333.15 K, 153.2 kPa, m2 = 0.091	1233	5.14
333.15 K, 263.6 kPa, m2 = 0.158	1232	5.09
333.15 K, 436.2 kPa, m2 = 0.257	1229	4.92
333.15 K, 694.6 kPa, m2 = 0.415	1226	4.5
333.15 K, 896.4 kPa, m2 = 0.54	1224	4.4
333.15 K, 1035.8 kPa, m2 = 0.626	1223	4.27
333.15 K, 1456.6 kPa, m2 = 0.886	1220	3.87
333.15 K, 1761.6 kPa, m2 = 1.061	1218	3.69
343.15 K, 168.2 kPa, m2 = 0.087	1223	4.19
343.15 K, 296.7 kPa, m2 = 0.155	1222	4.06
343.15 K, 477.6 kPa, m2 = 0.249	1219	4
343.15 K, 758.5 kPa, m2 = 0.402	1216	3.61
343.15 K, 978.6 kPa, m2 = 0.526	1213	3.63
343.15 K, 1118.9 kPa, m2 = 0.603	1211	3.46
343.15 K, 1538.6 kPa, m2 = 0.853	1207	3.24
343.15 K, 1852.6 kPa, m2 = 1.011	1205	3.02
343.15 K, 2326.1 kPa, m2 = 1.305	1203	2.92
353.15 K, 178.9 kPa, m2 = 0.08	1215	3.5
353.15 K, 305 kPa, m2 = 0.137	1212	3.27
353.15 K, 509.4 kPa, m2 = 0.232	1209	3.14
353.15 K, 828 kPa, m2 = 0.38	1205	3.16
353.15 K, 1248.9 kPa, m2 = 0.581	1199	3
353.15 K, 1720.3 kPa, m2 = 0.822	1194	2.78
353.15 K, 1911.1 kPa, m2 = 0.924	1192	2.62
363.15 K, 188.8 kPa, m2 = 0.076	1205	2.84
363.15 K, 327.8 kPa, m2 = 0.133	1203	2.74
363.15 K, 555 kPa, m2 = 0.225	1199	2.64
363.15 K, 902.8 kPa, m2 = 0.366	1194	2.49
363.15 K, 1404.2 kPa, m2 = 0.573	1189	2.39
363.15 K, 2015 kPa, m2 = 0.822	1185	2.24
